These are literature values, as cited in patent US20030083360A1, “Compaction process for manufacture of sodium phenytoin dosage form” (priority 2001, published 2003).

Like-named read-outs stand apart in the source and are kept apart here.

Regarding `O=C1NC(=O)C(c2ccccc2)(c2ccccc2)N1` [phenytoin, 5,5-diphenyl-2,4-imidazolidinedione], the solubility in water entry is given as “poor solubility in water”. Further, the solubility in water result (listed as free-phenytoin) was “practically insoluble in water”.

In the case of `O=C1N=C([O-])NC1(c1ccccc1)c1ccccc1.[Na+]` [sodium phenytoin], the solubility in water entry is “much more soluble”.
